Here are results for one compound from publication PMC11474028, “Lipopeptide antibiotics disrupt interactions of undecaprenyl phosphate with UptA” (Proceedings of the National Academy of Sciences of the …, 2024).

For the assay, the target named is UptA (Bacillus subtilis, UniProt O31823). Briefly: Native MS of phospholipid binding to UptA. The settings on record: 4 µM UptA with 10 µM lipid (stated for a15:0-i15:0 lipids); mean of three independent replicates. The source says: Proteins belonging to the DedA family are a widespread family of transporters and are proposed to flip diverse lipids, including carrier lipids and membrane phospholipids. We therefore probed the interaction of UptA with membrane phospholipids to understand whether the latter could modulate its function. For this purpose, we selected anionic phosphatidylglycerols (PG) and zwitterionic phosphatidylethanolamines (PE), representing the major classes of phospholipid headgroups found in B. subtilis ([41], [42]). We recorded mass spectra of solutions containing 4 µM UptA incubated with 10 µM a15:0-i15:0 PE and 10 µM a15:0-i15:0 PG (a15:0, anteiso-pentadecanoic acid; i15:0, iso-pentadecanoic acid). The fatty acid composition of these lipids closely mimics those of native B. subtilis lipids (see below). The resulting spectra display peaks corresponding to UptA in apo and lipid-bound forms in both cases (Fig. 4 A and B). […] We therefore hypothesize that UptA interacts more favorably with PG than with PE.
Chain of UptA (O31823 whole entry): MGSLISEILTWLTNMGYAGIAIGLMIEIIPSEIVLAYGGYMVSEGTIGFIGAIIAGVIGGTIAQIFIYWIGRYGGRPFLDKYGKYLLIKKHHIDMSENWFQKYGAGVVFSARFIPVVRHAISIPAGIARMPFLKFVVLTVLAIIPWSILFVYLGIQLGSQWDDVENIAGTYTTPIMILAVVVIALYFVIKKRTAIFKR
To verify the lipid binding preference of UptA with more native-like lipids, we prepared lipid extracts from B. subtilis membranes (Materials and Methods). We then incubate an aliquot of the resulting crude lipids (SI Appendix, Fig. S8) with UptA. The spectra yielded peaks assigned to UptA in complex with cardiolipins (~1,326 Da) and a range of phospholipids, predominantly 694 Da, 721 Da, 748 Da, and 776 Da species (Fig. 4 D and E). To identify these lipids, we performed tandem MS/MS, isolating the lipid species and subjecting it to collisional activation. […] The fatty acid fragments are mixed populations, predominantly 15:0-15:0, 15:0-17:0, 16:0-16:0, and 16:0-18:1 (SI Appendix, Fig. S9) which are the typical fatty acids from B. subtilis membrane phospholipids ([42]). We therefore conclude that UptA interacts more favorably with the anionic cardiolipins and phosphatidylglycerols than with the zwitterionic phosphatidylethanolamines in the membrane lipid extracts.
Detailed experimental procedures are provided in SI Appendix. Briefly, UptA (wild type and mutants) was expressed in E. coli C43(DE3) cells (Lucigen) with GFP fusion on the C-terminus and solubilized from the membrane fraction by n-dodecyl-β-D-maltopyranoside (DDM). After purification by affinity chromatography, the GFP was cleaved by TEV protease and removed, and UptA was further purified by size-exclusion chromatography in a buffer containing 20 mM Tris-HCl (pH 8.0), 200 mM NaCl, 0.02% DDM. Before measurements, proteins were buffer-exchanged into 0.05% LDAO, 200 mM ammonium acetate at the desired pH using a centrifugal buffer exchange device (Micro Bio-Spin 6, Bio-Rad). Stock solutions of lipids were prepared from chloroform/methanol solution by evaporating aliquots of known volume in a SpeedVac. After drying, the lipid films were weighed and resuspended to a final concentration of 0.5 mM in 200 mM ammonium acetate and 0.05% LDAO by vertexing. Stock solutions of 0.5 mM amphomycin, aspartocin D, daptomycin, polymyxin B, polymyxin E, and bacitracin were made in the same buffer. All experiments were repeated three times from newly prepared stock solutions. Native mass spectrometry was performed on a Q-Exactive hybrid quadrupole-Orbitrap mass spectrometer (Thermo Fisher Scientific, Bremen, Germany), and lipid identification was performed on an Orbitrap Eclipse Tribrid mass spectrometer (Thermo). […]
Lipid extracts from B. Subtilis
B. subtilis strain 168 (ATCC 23857) was cultivated in […] LB media at 37 °C until OD600 nm 1.2 under aurobic conditions. Cells were harvested by centrifugation at 4,000 g for 20 minutes and resuspended in 20 mM Tris-HCl (pH 8.0), 150 mM NaCl. Cells were lysed by 5-6 passes through a microfluidizer at 20,000 psi. The lysates were clarified by centrifugation at 4,000 g for 10 minutes, and the totoal membrane was pelleted at 120,000 g for 1 h. The membrane pellet was ressupended […]

In the case of `CC(C)=CCC/C(C)=C/CC/C(C)=C/CC/C(C)=C\CC/C(C)=C\CC/C(C)=C\CC/C(C)=C\CC/C(C)=C\CC/C(C)=C\CC/C(C)=C\CC/C(C)=C\COP(=O)(O)O` [C55-P, undecaprenyl phosphate], the “mean relative intensity of UptA in complex with phospholipid, comparison (in words)” value is listed as “more intensely than any of these diacylglycerol phospholipids”.
